Data: patent US20230018989A1, “INHIBITING THE RNA […] METTL3 OR ITS INTERACTION WITH EIF3H TO […] ONCOGENE TRANSLATION AND TUMORIGENESIS” (Children's Medical Center Corporation, priority 2019, published 2023)

What was measured:
A549 cells [1] = assay: MTS cell proliferation assay upon JQ1 treatment; type: cell-based, human; settings: 500 nM JQ1; METTL3 depleted A549 cells compared with control A549 cells
Description: FIGS. 7A-7N. METTL3 promotes translation of a large subset of mRNAs. (FIGS. 7A-7E) Global profiling of METTL3 target genes in HeLa. Cytoplasmic extracts from control or METTL3 depleted cells were subjected to sucrose gradient centrifugation. Total RNA, RNA from sub-polysome fractions and RNA from polysome fractions were analyzed by RNA-seq. (FIG. 7A) Peak analysis of polysome profiling. (FIG. 7B) Scatter plot of RNA-Seq data in METTL3 knockdown (shMETTL3) and control (shGFP) HeLa cells. Average read number from two individual METTL3 knockdown is plotted on the y-axis. (FIG. 7C) Scatter plot of RNA-Seq data in shMETTL3 and shGFP HeLa cells. Average read number from two shMETTL3 samples were calculated by the ratio of polysome fraction to the read number in the sub-polysome fraction and plotted on the y-axis. […] (FIG. 7N) Quantification of apoptotic cells, numbers represent ratio between death cells in JQ1 and DMSO treatments. […]
Cell proliferation and apoptosis assays were performed as described previously^8. […] Absorbances at 490 nm were measured using CellTiter 96 AQueous One Solution Cell Proliferation Assay kit (Promega) on day 2, day 4, and day 6 to measure the cellular proliferation. The numbers of apoptotic cells were quantified by flow cytometric assays using Annexin V-FITC Apoptosis Detection Kit (BioVision) five days after 500 nM of JQ1 treatment and cell seeding.

A549 cells [2] = assay: Annexin V/PI apoptosis assay (FACS) upon JQ1 treatment; type: cell-based, human; settings: 500 nM JQ1, five days; METTL3 depleted A549 cells compared with control A549 cells
Description: FIGS. 7A-7N. METTL3 promotes translation of a large subset of mRNAs. (FIGS. 7A-7E) Global profiling of METTL3 target genes in HeLa. Cytoplasmic extracts from control or METTL3 depleted cells were subjected to sucrose gradient centrifugation. Total RNA, RNA from sub-polysome fractions and RNA from polysome fractions were analyzed by RNA-seq. (FIG. 7A) Peak analysis of polysome profiling. (FIG. 7B) Scatter plot of RNA-Seq data in METTL3 knockdown (shMETTL3) and control (shGFP) HeLa cells. Average read number from two individual METTL3 knockdown is plotted on the y-axis. (FIG. 7C) Scatter plot of RNA-Seq data in shMETTL3 and shGFP HeLa cells. Average read number from two shMETTL3 samples were calculated by the ratio of polysome fraction to the read number in the sub-polysome fraction and plotted on the y-axis. (FIG. 7D) Venn diagram showing the overlap of 2-fold less translated genes and METTL3 PAR-CLIP data. […] (FIG. 7N) Quantification of apoptotic cells, numbers represent ratio between death cells in JQ1 and DMSO treatments. […]
FIGS. 9A-9E. […] (FIG. 9B) Density plot reflects the distribution of changes in percent spliced In (APSI) values and according p-values for alternative splicing events detected by rMATs v3.2.5. […] (FIG. 9E) Annexin V/PI staining of METTL3 knockdown and control A549 cells upon JQ1 treatment that was analyzed by FACS. […]

[3] = target: eIF3h (endogenous, in cells) (human) (UniProt O15372); assay: cell-based or functional assay
Sequence of UniProt O15372 (O15372 whole entry): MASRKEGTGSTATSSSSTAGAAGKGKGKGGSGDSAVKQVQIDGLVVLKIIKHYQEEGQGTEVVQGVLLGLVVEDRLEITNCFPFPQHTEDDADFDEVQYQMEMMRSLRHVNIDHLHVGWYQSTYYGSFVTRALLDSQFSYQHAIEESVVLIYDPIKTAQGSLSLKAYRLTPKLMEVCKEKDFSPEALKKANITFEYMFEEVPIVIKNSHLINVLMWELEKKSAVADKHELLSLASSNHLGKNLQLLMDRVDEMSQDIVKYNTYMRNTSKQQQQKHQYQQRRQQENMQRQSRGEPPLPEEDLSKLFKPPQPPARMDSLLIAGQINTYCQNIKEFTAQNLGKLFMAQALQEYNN

Row | translation efficiency of reporter mRNA (tethering assay, FLuc-MS2bs, with control siRNA or eIF3h knockdown) [3] [fold] | Compound | cellular proliferation (OD490), JQ1 versus DMSO (A549 cells [1]) | number of apoptotic cells, JQ1 versus DMSO (A549 cells [2])
1 |  | Cc1sc2c(c1C)C(c1ccc(Cl)cc1)=N[C@@H](CC(=O)OC(C)(C)C)c1nnc(C)n1-2 [JQ1] | stronger proliferation defect | increased the number of apoptotic cells
2 | 2 | FLAG-MS2-METTL3 (from UniProt Q86U44 1-580) |  | 
